According to ChEMBL document CHEMBL4392878, “Guaiane-Type Sesquiterpenoids from the Roots of Daphne genkwa and Evaluation of Their Neuroprotective Effects” (2019):

What was measured:
Type in all cases: functional
SH-SY5Y [1] = assay: Neuroprotective activity in human SH-SY5Y cells assessed as reduction in H2O2-induced apoptosis by measuring necrotic cells level at 12.5 uM by annexin V-FITC and propidium iodide staining based flow cytometry (reference value: 6.69%); parameters: scale not given: the % may be the effect or the level left
SH-SY5Y [2] = assay: Neuroprotective activity in human SH-SY5Y cells assessed as reduction in H2O2-induced apoptosis by measuring late apoptotic cells level at 12.5 uM by annexin V-FITC and propidium iodide staining based flow cytometry (reference value: 5.26%); parameters: scale not given: the % may be the effect or the level left
SH-SY5Y [3] = assay: Neuroprotective activity in human SH-SY5Y cells assessed as reduction in H2O2-induced apoptosis by measuring viable cells level at 12.5 uM by annexin V-FITC and propidium iodide staining based flow cytometry (reference value: 76.7%)
SH-SY5Y [4] = assay: Neuroprotective activity in human SH-SY5Y cells assessed as reduction in H2O2-induced apoptosis by measuring early apoptotic cells level at 12.5 uM by annexin V-FITC and propidium iodide staining based flow cytometry (reference value: 11.3%); parameters: scale not given: the % may be the effect or the level left
SH-SY5Y [5] = assay: Neuroprotective activity in human SH-SY5Y cells assessed as reduction in H2O2-induced cell damage by measuring cell viability level at 12.5 uM by MTT assay (reference value: 67.95%)
SH-SY5Y [6] = assay: Neuroprotective activity in human SH-SY5Y cells assessed as reduction in H2O2-induced cell damage by measuring cell viability level at 50 uM by MTT assay (reference value: 67.95%)

Compound | Activity (SH-SY5Y [1]) | Activity (SH-SY5Y [2]) | Activity (SH-SY5Y [3]) | Activity (SH-SY5Y [4]) | Activity (SH-SY5Y [5]) | Activity (SH-SY5Y [6])
CC1=C[C@@]2(O)OC(=O)C(C)=C2C[C@H]2[C@@H](C)CC[C@@]12O | 5.37% | 2.7% | 87.7% | 4.25% | 75.64% | –
CC1=C(C[C@@H]2/C(=C(/C)CO)CC[C@@H]2C)C(=O)OC1 | 12.1% | 3.29% | 79.2% | 5.41% | 79.94% | –
CC1=C2CC[C@H](C)[C@@H]2C[C@H]2C(=O)[C@@H]1OC[C@@]2(O)CO | 5.41% | 2.67% | 87.7% | 4.19% | 79.34% | –
Cc1c(C)c2c(c(C)c1O)CCC(C)(C(=O)O)O2 (stereo unspecified) [TROLOX] | – | – | – | – | – | 78.65%
